Laboratory results as given in patent publication EP2527332A1, “4-Aryl-N-phenyl-1,3,5-triazin-2-amines containing a sulfoximine group as CDK9 inhibitors” (Bayer Intellectual Property GmbH, priority 2011, dated 2012).
Like-named read-outs stand apart in the source and are kept apart here.

Assays:
[1] = tested on: B 16F 10 cell; assay: Proliferation assay (crystal violet), B16F10; assay type: cell-based, mouse; details: B16F10, 4 days incubation, read-out: Inhibition of B 16F 10 cell proliferation IC50
Procedure: (§1) After 24 hours, the cells of one plate (zero-point plate) were stained with crystal violet (see below), while the medium of the other plates was replaced by fresh culture medium (200 µL), to which the test substances were added in various concentrations (0 µM, as well as in the range of 0.001-10 µM; the final concentration of the solvent dimethyl sulfoxide was 0.5%). The cells were incubated for 4 days in the presence of test substances. Cell proliferation was determined by staining the cells with crystal violet: the cells were fixed by adding 20 µL/measuring point of an 11% glutaric aldehyde solution for 15 minutes at room temperature. After three washing cycles of the fixed cells with water, the plates were dried at room temperature. The cells were stained by adding 100 µL/measuring point of a 0.1% crystal violet solution (pH 3.0). After three washing cycles of the stained cells with water, the plates were dried at room temperature. The dye was dissolved by adding 100 µL/measuring point of a 10% acetic acid solution. […] The change of cell number, in percent, was calculated by normalization of the measured values to the absorbance values of the zero-point plate (=0%) and the absorbance of the untreated (0 µM) cells (=100%). The IC50 values were determined by means of a 4 parameter fit using the company's own software.

[2] = tested on: HeLa cell; assay: Proliferation assay (crystal violet), HeLa; assay type: cell-based, human; details: 4 days incubation, read-out: Inhibition of HeLa cell proliferation IC50
Procedure: as §1

[3] = tested on: DU145 cell; assay: Proliferation assay (crystal violet), DU145; assay type: cell-based, human; details: DU145, 4 days incubation, read-out: Inhibition of DU145 cell proliferation IC50
Procedure: as §1

[4] = tested on: H460 cell; assay: Proliferation assay (crystal violet), H460; assay type: cell-based; details: Homo sapiens, NCI-H460, 96 h; H460, 4 days incubation; read-out: Inhibition of H460 cell proliferation (activity range) IC50
Procedure: as §1

[5] = tested on: CACO-2 cell; assay: Proliferation assay (crystal violet), CACO-2; assay type: cell-based; details: Homo sapiens, 96 h; CACO-2, 4 days incubation; read-out: Inhibition of CACO-2 cell proliferation IC50
Procedure: as §1

[6] = tested on: HeLa/MaTu/ADR cell; assay: Proliferation assay (crystal violet), HeLa/MaTu/ADR; assay type: cell-based, human; details: HeLa/MaTu/ADR (multidrug-resistant), 4 days incubation, read-out: Inhibition of HeLa/MaTu/ADR cell proliferation IC50
Procedure: as §1

[7] = Equilibrium shake flask solubility assay; assay type: physicochemical; details: phosphate buffer pH 6.5, 24 hrs, room temperature; 1440 min
Procedure: 4. Equilibrium Shake Flask Solubility Assay:
The thermodynamic solubility of compounds in water was determined by an equilibrium shake flask method (see for example: E.H. Kerns, L. Di: Drug-like Properties: Concepts, Structure Design and Methods, 276-286, Burlington, MA, Academic Press, 2008). A saturated solution of the drug was prepared and the solution was mixed for 24 h to ensure that equilibrium was reached. The solution was centrifuged to remove the insoluble fraction and the concentration of the compound in solution was determined using a standard calibration curve.
To prepare the sample, 2 mg solid compound was weighed in a 4 mL glass vial. 1 mL phosphate buffer pH 6.5 was added. The suspension was stirred for 24 hrs at room temperature. The solution was centrifuged afterwards. To prepare the sample for the standard calibration, 2 mg solid sample was dissolved in 30 mL acetonitrile. After sonification the solution was diluted with water to 50 mL.. Sample and standards were quantified by HPLC with UV-detection. For each sample two injection volumes (5 and 50 µl) in triplicates were made. Three injection volumes (5 µl, 10 µl and 20 µl) were made for the standard.
The areas of sample- and standard injections as well as the calculation of the solubility value (in mg/l) were determined by using HPLC software (Waters Empower 2 FR).

IC50 ([1]; Mus musculus, B16-F10, 96 h) [nM]	IC50 ([2]; Homo sapiens, 96 h) [nM]	IC50 ([3]; Homo sapiens, DU-145, 96 h) [nM]	IC50 [4] [nM]	IC50 [5] [nM]	IC50 ([6]; Homo sapiens, 96 h) [nM]	SMILES	further results
250	< 100	180	160	270	200	CS(=N)(=O)Cc1cccc(Nc2ncnc(-c3ccc(F)cc3OCc3ccccc3)n2)c1 (racemic) [Compound 6, (rac)-4-[2-(Benzyloxy)-4-fluorophenyl]-N-{3-[(S-methylsulfonimidoyl)methyl]phenyl}-1,3,5-triazin-2-amine]	–
–	400	–	–	–	–	CCOC(=O)N=S(C)(=O)Cc1cccc(Nc2ncnc(-c3cc(F)c(F)cc3OC)n2)c1 (racemic) [Compound 9, (rac)-Ethyl [(3-{[4-(4,5-difluoro-2-methoxyphenyl)-1,3,5-triazin-2-yl]amino}benzyl)(methyl)oxido-λ^6-sulfanylidene]carbamate]	–
–	–	–	–	–	–	COc1cc(F)ccc1-c1ncnc(Nc2cccc(CS(C)(=N)=O)c2)n1 (single isomer, unassigned; (+)) [Compound 4, (+)-4-(4-Fluoro-2-methoxyphenyl)-N-{3-[(S-methylsulfonimidoyl)methyl]phenyl}-1,3,5-triazin-2-amine]	IC50 [1]: 1000 nM; IC50 [2]: 970 nM; IC50 [3]: 670 nM; Solubilty in mg/l. (thermodynamic solubility in water) [7]: 479 µg/mL; IC50 [6]: 440 nM
1000	1100	740	–	–	–	COc1cc(F)ccc1-c1ncnc(Nc2cccc(CS(C)(=N)=O)c2)n1 (single isomer, unassigned; (-)) [Compound 3, (-)-4-(4-Fluoro-2-methoxyphenyl)-N-{3-[(S-methylsulfonimidoyl)methyl]phenyl}-1,3,5-triazin-2-amine]	IC50 ([6]; Homo sapiens, HeLa, 96 h): 400 nM
–	1100	–	–	–	–	COc1cc(F)ccc1-c1ncnc(Nc2cccc(CS(C)(=N)=O)c2)n1 (racemic) [Compound 2, (rac)-4-(4-Fluoro-2-methoxyphenyl)-N-{3-[(S-methylsulfonimidoyl)methyl]phenyl}-1,3,5-triazin-2-amine]	–
360	1000	390	360	390	380	CCOC(=O)N=S(C)(=O)Cc1cccc(Nc2ncnc(-c3ccc(F)cc3OC)n2)c1 (racemic) [Compound 1, (rac)-Ethyl [(3-{[4-(4-fluoro-2-methoxyphenyl)-1,3,5-triazin-2-yl]amino}benzyl)(methyl)oxido-λ^6-sulfanylidene]carbamate]	–
